# Laboratory results from US6716814B2, “Enhancing solubility of iron amino acid chelates and iron proteinates” (Albion International, Inc., priority 2001, dated 2004).
# What was measured:
# [1] = pH of hydrated iron proteinate with or without added compound (Example 4); type: physicochemical; conditions: compound added to iron proteinate solution, compound to iron content about 1:1 by weight
# Procedure: (§1) A small amount of the solution was placed on filter paper with a pipette. […] Next, several different organic acids and sugars were added to various samples of the solution. Each was inspected both visually and by placing a small amount of solution on filter paper with a pipette.
# [2] = Visual inspection of hydrated iron proteinate with or without added compound (Example 4); type: physicochemical; conditions: compound added to iron proteinate solution, compound to iron content about 1:1 by weight
# Procedure: as §1
# [3] = Filter paper ring characterization of hydrated iron proteinate (Example 4); type: physicochemical; conditions: compound added to iron proteinate solution, about 1:1 by weight to iron
# Procedure: An iron proteinate or iron protein hydrolysate which was hydrolyzed from a vegetable protein was formed having an iron content of about 10%. […] A small amount of the solution was placed on filter paper with a pipette. […] Next, several different organic acids and sugars were added to various samples of the solution. Each was inspected both visually and by placing a small amount of solution on filter paper with a pipette. […] This is evidenced by darker rings remaining on the filter paper which corresponded to location of the waterfront.
# [4] = Visual inspection of aqueous iron bisglycinate with added compound (Example 3); type: physicochemical; conditions: compound added to aqueous iron bisglycinate, compound to iron content about 1.8:1 by weight
# [5] = Filter paper ring characterization of aqueous iron bisglycinate (Example 3); type: physicochemical; conditions: for RING APPEARANCE: compound added to aqueous iron bisglycinate, about 1.8:1 by weight to iron, filter paper after drying
# [6] = Filter paper test of hydrated samples (Example 1, Phase 1); type: physicochemical; conditions: hydrated with water sufficient to dissolve, after 4 hours, solution placed on filter paper with pipette
# Procedure: After hydrating Sample 1 and Sample 2 with an amount of water sufficient to dissolve the respective powders and allowing 4 hours to pass, a small amount of each solution was placed on filter paper with a pipette. By placing the two solutions on paper in this manner, the respective solutions were allowed to disperse away from the point of application while leaving behind any solids that may have formed.
# [7] = Visual examination of solutions retained in test tubes (Example 1, Phase 2); conditions: solution retained in test tube 20 additional hours (after first 4 hours)
pH [1],VISUAL [2],RING APPEARANCE [3],VISUAL [4],RING APPEARANCE [5],"mobility and solubility on the filter paper ([5]; added to separate samples of iron bisglycinate, versus control)",Compound,solids left behind on filter paper [6],portion precipitated from solution (visual examination) [7]
3.0,no change,dark brown waterfront ring,,,,CC(=O)O [Acetic Acid],,
4.5,no change,dark brown waterfront ring,no precipitation,dark waterfront ring,,O=C1O[C@H]([C@@H](O)CO)C(O)=C1O [Ascorbic Acid],,
1.5,no change,dark brown waterfront ring,,,,O=C(O)CC(O)(CC(=O)O)C(=O)O [Citric Acid],,
1.0,no change,dark brown waterfront ring,no precipitation,dark waterfront ring,,CC(O)C(=O)O (centres unmarked) [Lactic Acid],,
2.0,no change,dark brown waterfront ring,no precipitation,dark waterfront ring,enhancement of mobility and solubility,O=C(O)CC(O)C(=O)O (centres unmarked) [Malic Acid],,
,,,,,,"NCC(=O)[O-].NCC(=O)[O-].[Fe+2] [Sample 1, ferrous bisglycinate]",small clump of precipitate,approximately 50%
2.0,no change,dark brown waterfront ring,,,,O=C(O)CCC(=O)O [Succinic Acid],,
7.0,no change,brown staggered rings,precipitated solids,light staggered ring,,OC[C@H]1O[C@@](CO)(O[C@H]2O[C@H](CO)[C@@H](O)[C@H](O)[C@H]2O)[C@@H](O)[C@@H]1O [Sucrose],,
